Assays:
Liver microsome [1] = test: Drug metabolism in human liver microsomes assessed as dextrophan-O-glucuronide formation measured as intrinsic clearance in presence of 2% BSA; type: ADME
Homo sapiens = test: Ratio of AUC for compound to dexttomethorphan in human treated with 30 to 60 mg, po dexttomethorphan; type: ADME, organism-based; settings: in vivo
[2] = target: T1, UDP-glucuronosyltransferase 1A10 (Homo sapiens, UniProt Q9HAW8); test: Drug metabolism assessed as recombinat UGT1A10 (unknown origin) -mediated dextrophan-O-glucuronide formation; type: ADME
T1 sequence (Q9HAW8 whole entry): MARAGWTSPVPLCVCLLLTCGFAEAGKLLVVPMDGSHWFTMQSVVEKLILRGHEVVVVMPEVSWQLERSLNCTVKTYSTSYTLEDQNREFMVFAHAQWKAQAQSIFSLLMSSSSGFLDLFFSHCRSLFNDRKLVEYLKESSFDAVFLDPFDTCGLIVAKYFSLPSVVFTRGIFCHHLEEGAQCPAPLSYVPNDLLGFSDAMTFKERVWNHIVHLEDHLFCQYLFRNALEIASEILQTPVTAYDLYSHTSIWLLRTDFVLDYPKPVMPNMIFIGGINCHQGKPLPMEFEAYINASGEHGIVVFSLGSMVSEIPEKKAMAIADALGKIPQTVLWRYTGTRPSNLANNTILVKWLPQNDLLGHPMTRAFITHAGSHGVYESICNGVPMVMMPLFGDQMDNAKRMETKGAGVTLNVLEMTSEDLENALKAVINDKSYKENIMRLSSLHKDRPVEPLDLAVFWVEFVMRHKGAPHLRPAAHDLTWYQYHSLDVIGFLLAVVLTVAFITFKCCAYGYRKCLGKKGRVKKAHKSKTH

[3] = target: T2, UDP-glucuronosyltransferase 1A1 (Homo sapiens, UniProt P22309); test: Drug metabolism assessed as recombinat UGT1A1 (unknown origin) -mediated dextrophan-O-glucuronide formation; type: ADME
T2 sequence (P22309 whole entry): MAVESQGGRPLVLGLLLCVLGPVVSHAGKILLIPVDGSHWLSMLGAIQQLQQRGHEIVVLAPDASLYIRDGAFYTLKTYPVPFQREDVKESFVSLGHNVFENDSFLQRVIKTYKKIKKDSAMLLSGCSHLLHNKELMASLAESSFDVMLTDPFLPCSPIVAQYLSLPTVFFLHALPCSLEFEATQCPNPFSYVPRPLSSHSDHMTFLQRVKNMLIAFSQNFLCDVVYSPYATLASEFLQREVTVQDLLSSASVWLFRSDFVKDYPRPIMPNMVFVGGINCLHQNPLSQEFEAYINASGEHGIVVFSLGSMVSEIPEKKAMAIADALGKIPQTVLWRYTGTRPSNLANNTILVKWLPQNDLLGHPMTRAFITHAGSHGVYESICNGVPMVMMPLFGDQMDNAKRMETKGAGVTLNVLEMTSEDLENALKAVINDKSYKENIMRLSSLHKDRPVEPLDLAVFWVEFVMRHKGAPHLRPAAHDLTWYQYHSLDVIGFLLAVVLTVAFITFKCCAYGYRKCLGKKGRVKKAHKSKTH

Liver microsome [4] = test: Drug metabolism in human liver microsomes assessed as dextrophan-O-glucuronide formation measured as microsomal fraction unbound in presence of 2% BSA; type: ADME
Liver microsome [5] = test: Drug metabolism in human liver microsomes assessed as dextrophan-O-glucuronide formation measured as intrinsic clearance; type: ADME
Liver microsome [6] = test: Drug metabolism in human liver microsomes assessed as dextrophan-O-glucuronide formation in presence of 2% BSA; type: ADME
[7] = target: T3, UDP-glucuronosyltransferase 2B17 (Homo sapiens, UniProt O75795); test: Drug metabolism assessed as recombinat UGT2B17 (unknown origin) -mediated dextrophan-O-glucuronide formation; type: ADME
T3 sequence (O75795 whole entry): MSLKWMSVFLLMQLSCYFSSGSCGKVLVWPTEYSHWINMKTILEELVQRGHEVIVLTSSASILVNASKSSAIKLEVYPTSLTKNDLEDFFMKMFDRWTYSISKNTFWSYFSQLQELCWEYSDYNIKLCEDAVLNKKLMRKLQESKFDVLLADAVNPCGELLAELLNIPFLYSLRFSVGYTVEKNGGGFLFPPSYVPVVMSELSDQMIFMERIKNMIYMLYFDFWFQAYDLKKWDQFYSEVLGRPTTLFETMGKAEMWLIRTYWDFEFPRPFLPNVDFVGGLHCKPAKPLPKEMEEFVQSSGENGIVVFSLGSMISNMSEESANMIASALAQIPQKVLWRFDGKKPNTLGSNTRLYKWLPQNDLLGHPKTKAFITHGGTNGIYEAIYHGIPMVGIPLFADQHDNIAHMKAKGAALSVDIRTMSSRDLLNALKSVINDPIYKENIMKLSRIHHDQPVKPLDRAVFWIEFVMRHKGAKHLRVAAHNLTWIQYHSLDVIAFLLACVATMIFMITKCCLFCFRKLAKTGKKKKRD

Liver microsome [8] = test: Drug metabolism in human liver microsomes assessed as dextrophan-O-glucuronide formation; type: ADME
Liver microsome [9] = test: Drug metabolism in human liver microsomes assessed as dextrophan-O-glucuronide formation measured as plasma fraction unbound in presence of 2% BSA; type: ADME
[10] = target: T4, UDP-glucuronosyltransferase 1A9 (Homo sapiens, UniProt O60656); test: Drug metabolism assessed as recombinat UGT1A9 (unknown origin) -mediated dextrophan-O-glucuronide formation; type: ADME
T4 sequence (O60656 whole entry): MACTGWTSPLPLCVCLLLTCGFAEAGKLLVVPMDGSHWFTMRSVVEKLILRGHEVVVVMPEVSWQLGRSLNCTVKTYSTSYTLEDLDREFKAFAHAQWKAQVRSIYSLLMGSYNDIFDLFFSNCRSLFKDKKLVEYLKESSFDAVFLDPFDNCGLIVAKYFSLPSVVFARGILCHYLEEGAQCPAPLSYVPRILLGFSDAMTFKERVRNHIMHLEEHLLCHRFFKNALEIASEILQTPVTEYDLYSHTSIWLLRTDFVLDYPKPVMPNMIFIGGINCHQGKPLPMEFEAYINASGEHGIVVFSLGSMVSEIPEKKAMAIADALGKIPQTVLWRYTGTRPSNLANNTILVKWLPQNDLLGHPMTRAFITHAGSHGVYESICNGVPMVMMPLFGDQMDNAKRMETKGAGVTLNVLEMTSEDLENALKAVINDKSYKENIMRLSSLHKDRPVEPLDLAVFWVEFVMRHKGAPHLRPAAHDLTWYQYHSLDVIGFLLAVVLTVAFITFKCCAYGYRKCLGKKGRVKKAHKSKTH

## CN1CC[C@@]23CCCC[C@@H]2[C@@H]1Cc1ccc(O)cc13 [DEXTRORPHAN]
Liver microsome [1]
  CLH: 11 µL/min/mg
Homo sapiens
  Ratio AUC: 0.61
[2]
  Drug metabolism: metabolite_not_detected
[3]
  Drug metabolism: metabolite_not_detected
Liver microsome [4]
  Fu: 0.88
Liver microsome [5]
  CLH: 2.9 µL/min/mg
Liver microsome [6]
  Km: 210 µM
[7]
  Drug metabolism: metabolite_detected
Liver microsome [8]
  Km: 690 µM
Liver microsome [9]
  Fu: 0.55
[10]
  Drug metabolism: metabolite_not_detected

— ChEMBL document CHEMBL3526083, “Prediction of relative in vivo metabolite exposure from in vitro data using two model drugs: dextromethorphan and omeprazole” (Drug Metab Dispos, 2012)
